Assay results: patent US7230085B2, “Anti-DOTA antibody” (Immunomedics, Inc., priority 2001, dated 2007)
Blank lines part the entries; values can stand above or below the molecule they belong to. Where a SMILES comes first, the peptide text is derived from it. The star is where a group is joined. DOTA = O=C(O)CN1CCN(CC(=O)O)CCN(CC(=O)*)CCN(CC(=O)O)CC1

Legend:
LG1 IgG antibody = test: Binding of radiolabeled IMP 236 by LG1 on size-exclusion HPLC; design: species or system mouse; conditions: mixed with excess LG1; SE-HPLC shift
Procedure: Typical procedures for the production of radiolabeled DOTA-peptides incorporating, for example, Y-90 and Lu-177 are as follows. Of particular importance is the maximum specific activity achievable, which depends on the quality of the isotope. The radionuclide, obtained in an acidic solution, is treated with an excess of an acetate buffer, to a final pH of 4-6, and added to the DOTA-peptide conjugate, also in acetate buffer. All manipulations are carried out using acid-washed and metal-free components. The labeling mixture is heated at 45° C. for one hour and then allowed to cool to room temperature. Radiolabeled peptides are analyzed by RP-HPLC to determine incorporation, and are tested for binding to LG1, by mixing with a small excess of the LG1 mAb, and testing by analytical size-exclusion HPLC.
Yttrium-90 (^˜400 uCi per kit) is diluted to 1 mL in deionized water and added in one portion to the lyophilized IMP 236 kits of example 12. The kits are heated in a boiling water-bath for 15 min, and the vials then cooled to room temperature. The Y-90 radiolabeled peptides are analyzed by reverse-phase HPLC. […]
Indium-111 [In-111] radionuclide (^˜300 uCi added per kit) is diluted to 0.5 mL in deionized water and added to the lyophilized kits. […] The labeled peptide vials are cooled to room temperature and evaluated by reverse-phase HPLC. […]

[1] = system: human colonic tumor cell line, termed GW-39; test: Biodistribution in nude mice bearing GW-39 tumors; design: species or system NcR athymic nude mice; conditions: mouse, in vivo
Procedure: NcR athymic nude mice are implanted with cells of the human colonic tumor cell line, termed GW-39. When tumors have reached an appropriate size (>100 mm^3) agents are injected. The I-125-radioiodinated msAb is given first, and at different later times the In-111-IMP-236 is administered. The latter radiolabeled peptide is also given alone to a control group of animals. Doses given to each animal are 1.5×10^−10 moles of I-125-hMN-14×mLG1 (8 uCi of I-125 per animal), and 1.5×10^−11 moles of In-111-IMP-236. At specified times post-injection of the labeled IMP-236 animals are sacrificed and major internal tissues are collected and quantified for both I-125 and In-111 radioactivity.

hLL2-DOTA-yttrium = test: Qualitative binding on size-exclusion HPLC; conditions: SE-HPLC
Description: (§1) The msAb, LG1×hMN-14 (Fab′×Fab) is shown by the same analysis to bind to hLL2-DOTA-yttrium.

hLL2-DOTA = test: Qualitative binding on size-exclusion HPLC; conditions: SE-HPLC
Description: as §1

hMN-14-DOTA-yttrium-90 = test: Qualitative binding on size-exclusion HPLC; conditions: SE-HPLC

Molecule: Ac-Phe-Lys(DOTA)-Tyr-Lys(DOTA)-NH2 (Ac-FK(DOTA)YK(DOTA)-NH2; SMILES CC(=O)N[C@@H](Cc1ccccc1)C(=O)N[C@@H](CCCCNC(=O)CN1CCN(CC(=O)O)CCN(CC(=O)O)CCN(CC(=O)O)CC1)C(=O)N[C@@H](Cc1ccc(O)cc1)C(=O)N[C@@H](CCCCNC(=O)CN1CCN(CC(=O)O)CCN(CC(=O)O)CCN(CC(=O)O)CC1)C(N)=O) [IMP 236]
binding of radiolabeled peptide by LG1 (LG1 IgG antibody): bind strongly

elimination [1]: quickly eliminated via the renal system
Molecule: CC(=O)N[C@@H](Cc1ccccc1)C(=O)N[C@@H](CCCCNC(=O)CN1CCN(CC(=O)O)CCN(CC(=O)O)CCN(CC(=O)O)CC1)C(=O)N[C@@H](Cc1ccc(O)cc1)C(=O)N[C@@H](CCCCNC(=O)CN1CCN(CC(=O)O)CCN(CC(=O)O)CCN(CC(=O)O)CC1)C(N)=O [In-111-IMP-236, metal not drawn] (Ac-FK(DOTA)YK(DOTA)-NH2)
Blood, 30 minutes [1]: 1.0 ± 0.3 percent injected dose per gram of tissue
Blood, 3 h [1]: 0.0 ± 0.0 percent injected dose per gram of tissue
Blood, 24 h [1]: 0.0 ± 0.0 percent injected dose per gram of tissue
Blood, In-111, 3 h [1]: 0.4 ± 0.0 percent injected dose per gram of tissue
Blood, In-111, 24 h [1]: 0.0 ± 0.0 percent injected dose per gram of tissue
Kidney, 30 minutes [1]: 4.2 ± 0.7 percent injected dose per gram of tissue
Kidney, 3 h [1]: 2.2 ± 0.2 percent injected dose per gram of tissue
Kidney, 24 h [1]: 0.0 ± 0.0 percent injected dose per gram of tissue
Kidney, In-111, 3 h [1]: 2.5 ± 0.6 percent injected dose per gram of tissue
Kidney, In-111, 24 h [1]: 1.0 ± 0.2 percent injected dose per gram of tissue
Liver, 30 minutes [1]: 0.3 ± 0.1 percent injected dose per gram of tissue
Liver, 3 h [1]: 0.2 ± 0.1 percent injected dose per gram of tissue
Liver, 24 h [1]: 0.0 ± 0.0 percent injected dose per gram of tissue
Liver, In-111, 3 h [1]: 0.2 ± 0.0 percent injected dose per gram of tissue
Liver, In-111, 24 h [1]: 0.1 ± 0.0 percent injected dose per gram of tissue
Lungs, 30 minutes [1]: 0.7 ± 0.2 percent injected dose per gram of tissue
Lungs, 3 h [1]: 0.1 ± 0.0 percent injected dose per gram of tissue
Lungs, 24 h [1]: 0.0 ± 0.0 percent injected dose per gram of tissue
Lungs, In-111, 3 h [1]: 0.2 ± 0.0 percent injected dose per gram of tissue
Lungs, In-111, 24 h [1]: 0.0 ± 0.0 percent injected dose per gram of tissue
Spleen, 30 minutes [1]: 0.3 ± 0.1 percent injected dose per gram of tissue
Spleen, 3 h [1]: 0.1 ± 0.0 percent injected dose per gram of tissue
Spleen, 24 h [1]: 0.0 ± 0.0 percent injected dose per gram of tissue
Spleen, In-111, 3 h [1]: 0.2 ± 0.0 percent injected dose per gram of tissue
Spleen, In-111, 24 h [1]: 0.1 ± 0.0 percent injected dose per gram of tissue
Stomach, 30 minutes [1]: 0.2 ± 0.1 percent injected dose per gram of tissue
Stomach, 3 h [1]: 0.0 ± 0.0 percent injected dose per gram of tissue
Stomach, 24 h [1]: 0.0 ± 0.0 percent injected dose per gram of tissue
Stomach, In-111, 3 h [1]: 0.1 ± 0.2 percent injected dose per gram of tissue
Stomach, In-111, 24 h [1]: 0.0 ± 0.0 percent injected dose per gram of tissue
Tumor, 30 minutes [1]: 1.6 ± 0.3 percent injected dose per gram of tissue
Tumor, 3 h [1]: 0.1 ± 0.0 percent injected dose per gram of tissue
Tumor, 24 h [1]: 0.0 ± 0.0 percent injected dose per gram of tissue
Tumor, In-111, 3 h [1]: 6.4 ± 1.1 percent injected dose per gram of tissue
Tumor, In-111, 24 h [1]: 1.3 ± 0.3 percent injected dose per gram of tissue

binding to hLL2-DOTA-yttrium (hLL2-DOTA-yttrium): positive binding
binding to hLL2-DOTA (hLL2-DOTA): positive binding
binding to hMN-14-DOTA-yttrium-90 (hMN-14-DOTA-yttrium-90): positive binding
B1: Fab fragment of LG1: Fab fragment from ficin digestion of LG1 IgG (antibody, V domains shown)
VH: EVMLVESGGGLVKPGGSLTLSCAASGFTFTAHAMSWVRQTPEKRLEWVATISGGGTYTYFPDSFQGRFTISSDNAKNTLYLQMSSLRSEDTSMYFCTRHGDYRYAFGYWGQGTLVTVSA
VL: VVTQESALTTSPGETVTLTCRSSSGAVTTNNYANWVQEKPDHLFTGLIGGTNNRAPGVPARFSGSLIGDKAALTITGAQTEDEAIYFCALWFSDHWVFGGGTELTVLG
